Results taken from patent US9877973B2, “Intraocular drug delivery device and associated methods” (University of Utah Research Foundation, priority 2008, dated 2018).
Like-named read-outs stand apart in the source and are kept apart here.

Assays:
[1] = rabbit, in vivo
Description: The selected BDI-1 implants (from in-vitro release studies, FIG. 7) were sterilized, implanted in the capsular bag of rabbit's eyes. Two implants with different composition and dose were tested in-vivo in NZW rabbits to establish pharmacokinetics. Two rabbits were sacrificed at 2, 6, 10, 15 days and various tissue samples (aqueous humor, vitreous humor, IOL, iris/ciliary body and retina/choroid) were collected and samples were analyzed by a validated LC/MS/MS method.
A total of 8 animals (16 eyes) received the implant containing 120 μg of DXM.

[2] = rabbit, in vivo; remark: listed apart in the source
[3] = AVASTIN-loaded intraocular device, ocular tissue concentration by ELISA; format: in vivo, New Zealand white rabbits; settings: 1 week post implantation of AVASTIN-loaded intraocular device
Description: Three intraocular devices were implanted into eyes of New Zealand white rabbits under general anesthesia after lens extraction (phacoemulsification technique). Two of the devices were loaded with AVASTIN® and one was loaded with the contrast agent Galbumin as a control. Proper intraocular device position was verified by MRI as well as clinical examination.
The rabbits were sacrificed and the eyes are removed and assayed after 1 week post implantation. AVASTIN® was detected by ELISA in the retina and vitreous at concentrations of 24-48 mcg/mL, and was not present in the control rabbit eye.

Molecule | direction of dexamethasone flow from the endocapsular space [1] | direction of dexamethasone flow from the endocapsular space [2] | concentration in the retina and vitreous by ELISA [3] [ng/mL]
C[C@@H]1C[C@H]2[C@@H]3CCC4=CC(=O)C=C[C@]4(C)[C@@]3(F)[C@@H](O)C[C@]2(C)[C@@]1(O)C(=O)CO [dexamethasone] | bidirectional from the endocapsular space into both the anterior and posterior chambers | bidirectional from the endocapsular space into both the anterior and posterior chambers | –
bevacizumab [AVASTIN®] | – | – | 24000 to 48000
